Earlier results on one compound are cited in patent US12246026B2, “Ganaxolone for use in treatment of status epilepticus” (Marinus Pharmaceuticals, Inc., priority 2019, dated 2025).

The data set concerns patients with super refractory SE. To be noted: randomized, double-blind, placebo-controlled Phase 3 trial; cited from earlier work.

For the compound `CC(=O)[C@H]1CC[C@H]2[C@@H]3CC[C@H]4C[C@H](O)CC[C@]4(C)[C@H]3CC[C@]12C` [brexanolone], the efficacy over placebo entry was “failed to show efficacy over placebo”.
